Holding throughout (assay type): cell-based
For test [1], the system named is secretion of amyloid peptide β1-40 (Aβ1-40). The test is described as follows: Inhibition of β-amyloid secretion (CHO7w cells stably transfected with human APP, ELISA). The note with it: CHO-7W, 24 h incubation, range stated for the listed compounds together. On the procedure: The inhibition caused by the compounds on the secretion of amyloid peptide β1-40 (Aβ1-40) was determined by measuring the levels of this peptide in cell supernatants after incubating the cells with several concentrations of the tested compound. A CHO7w cell line, stably transfected with human amyloid precursor protein (APP), was used. Cells were dispensed in 96-well culture plates (5,000 cells/well) and grown in DMEM supplemented with 2% (v/v) foetal bovine serum, 100 U/ml penicillin, 100 μg/ml streptomycin, 2 mM L-glutamine and 200 μg/ml G418 in the presence of several concentrations of the tested compound which had been previously dissolved in DMSO (1% (v/v) DMSO final concentration). After a 24 h incubation the amount of Aβ1-40 secreted to the medium was measured with an ELISA-based commercial kit (Human Amyloid β-40 ELISA High Sensitivity Kit, Millipore, Billerica, Mass., USA) using absorbance at 450 nm as the final readout. In the culture plate several wells were included as a control for lack of Aβ1-40 secretion, in these wells the cells were incubated in the presence of 16% (v/v) DMSO to inhibit cell growth therefore abolishing Aβ1-40 secretion. Likewise, several wells were also included as a control for full Aβ1-40 secretion, in these wells the cells were grown in the presence of 1% (v/v) DMSO. The absorbance of each tested sample was normalized to that of the control wells, so that for every compound concentration the percentage of inhibition was calculated with the following equation:
[formula] where “S” is the absorbance of the sample being considered, “E” is the average absorbance of wells lacking Aβ1-40 secretion and “B” is the average absorbance of wells with full Aβ1-40 secretion. The inhibition values obtained at every compound concentration were fitted to a 4-parameters isotherm equation, as described above, to calculate the […] (i.e., the concentration causing 50% of inhibition of Ab1-40 secretion).

For test [2], the system named is SH-SY5Y human neuroblastoma cells. In words: Protection against hydrogen peroxide-induced cell death. Conditions: Homo sapiens; SH-SY5Y cells, 1 h preincubation, 100 μM hydrogen peroxide, 24 h, LDH readout of live cells. The method, then:
The aim of this assay is to determine the neuroprotective effect of the compounds when human neuroblastoma cells are exposed to the oxidative stress induced by hydrogen peroxide, which leads to cell death. Therefore the protective effect of the compounds was measured by monitoring cell survival using a suitable commercial kit (Cytotoxicity Detection Kit, Roche Diagnostics GmbH, Mannheim, Germany) based on the quantification of the lactate dehydrogenase activity obtained from lysates of the remaining live cells with a colorimetric assay yielding absorbance at 492 nm as the final readout.
SH-SY5Y human neuroblastoma cells were seeded into 96-well culture plate at a density of 10,000 cells/well. Cells were preincubated for one hour with different concentrations of the compound at a 1% (v/v) DMSO concentration in an equivolumetric mixture of Minimum Essential Medium (MEM) and Nutrient Mixture HAM F12 supplemented with 10% foetal bovine serum, 100 U/ml penicillin, 100 μg/ml streptomycin, 1 mM each of non-essential aminoacids (commercial preparation from GIBCO, Paisley, UK) and 2 mM L-glutamine. Hydrogen peroxide was then added to reach 100 μM and the incubation was extended for 24 h. Then the medium was removed and live cells, which remained attached to the bottom of the plate, were lysed by incubating them during 5 min with 50 μl of 1% (v/v) Triton X-100 in Krebs-Hepes buffer (10 mM Hepes pH7.3 with 145 mM NaCl, 5.5 mM KCl, 1 mM MgCl2, 2 mM CaCl2 and 1 mM glucose). This lysate was used to measure LDH activity using the commercial kit according to the manufacturer's instructions. In the culture plate several wells were included as a control of cell death, in these wells the cells were preincubated with 1% (v/v) DMSO before hydrogen peroxide addition. Likewise, several wells were included as control for full cell survival, in these wells the addition of H2O2 was omitted. The absorbance of each tested sample was normalized to that of the control wells, so that for every compound concentration the percentage of protective effect was calculated with the following equation:
[formula] where “S” is the absorbance of the sample being considered, “E” is the average absorbance of wells used as control of full cell survival and “B” is the average absorbance of wells used as control of cell death. The values obtained at every compound concentration were finally used to calculate the EC50 (i.e., the concentration causing 50% of protective effect) of the tested compound. For that purpose the data were fitted to a classical 4-parameters isotherm equation using the nonlinear regression function of GraphPad™ Prism 5.0 (GraphPad Software Inc.), such equation is described below:
[formula] where “L” is the lower asymptote of the theoretical sigmoidal curve, “H” is the higher asymptote, “C” is the concentration of compound and “n” is the Hill coefficient.

Test [3] concerns secretion of soluble amyloid precursor protein-α (sAPPα). The test is described as follows: Stimulation of sAPPα secretion (CHO7w cells stably transfected with human APP, AlphaLISA). The note with it: for EC50 / Emax: Homo sapiens, CHO-7W, CHO7w cells, 24 h incubation, range stated for the listed compounds together; for Emax: read-out: maximum effect (sAPPα secretion). On the procedure: The effect of the compounds on the stimulation of the secretion of soluble amyloid precursor protein-α (sAPPα) was determined by measuring the levels of this protein in cell supernatants after incubating the cells with several concentrations of the tested compound. A CHO7w cell line, stably transfected with human APP, was used. Cells were dispensed in 96-well culture plates (5,000 cells/well) and grown in DMEM supplemented with 2% (v/v) foetal bovine serum, 100 U/ml penicillin, 100 μg/ml streptomycin, 2 mM L-glutamine and 200 μg/ml G418 in the presence of several concentrations of the tested compound which had been previously dissolved in DMSO (1% (v/v) DMSO final concentration). After 24 h of incubation 5 μl of the culture supernatants were withdrawn and their sAPPα. concentration was measured with a commercial kit (AlphaLISA® Amyloid Precursor Protein-α Secreted Research kit, PerkinElmer, Waltham, Mass., USA) following manufacturer's instructions. In the culture plate several wells were included as a control for background sAPPα secretion, in these wells the cells were incubated with 1% (v/v) DMSO. The results obtained for each tested sample were normalized by using the following equation:
[formula] where “S” is the sAPPα concentration of the sample being considered, “B” is the average sAPPα concentration of wells used for background secretion and “M” is the sAPPα concentration of wells yielding the highest value. These normalized values obtained at every compound concentration were finally used to calculate the EC50 of the tested compound fitting them to a 4-parameters isotherm equation as already described. The average EC50s ranges are reported in Table 4 together with the maximum observed effect (and the concentration at which this effect was reached), this latter value was calculated for each compound according to the following equation:
[formula] with “M” and “B” as defined above.
For orientation: In Alpha technology, singlet oxygen from a donor bead excites a nearby acceptor bead.

Each structure is given as a SMILES string.

Take `COc1cc(CNS(=O)(=O)c2ccc(Cl)s2)nc(-c2ccccn2)c1` [Compound 2, 5-Chloro-thiophene-2-sulfonic acid (4-methoxy-[2,2′]bipyridinyl-6-ylmethyl)-amide]: the IC50 (in general, the midpoint of a concentration-inhibition curve) in test [1] fell in the range of 300 to 42000 nM. In addition, in test [2], the concentration for a half-maximal effect (EC50) (commonly the concentration at which the effect is half-maximal) was determined as 800 nM. In addition, in test [3], the EC50 was 500 to 11000 nM and the Emax lay within 250 to 500%. Further, the “rank of maximum effect among compounds tested (sAPPα secretion)” value in test [3] (comparison among tested compounds) is listed as “maximum effect was obtained”.

In turn, `COc1cc(CNS(=O)(=O)c2cc(F)cc(F)c2)nc(-c2ccccn2)c1` [Compound 10] returned an IC50 in test [1] of 300 to 42000 nM. The EC50 in test [2] was 1170 nM. For the same compound, in test [3], the EC50 was in the range of 500 to 11000 nM and the Emax was 250 to 500%.

As to `COc1cc(CNS(=O)(=O)c2cc(Cl)sc2Cl)nc(-c2ccccn2)c1` [Compound 19, 2,5-Dichloro-thiophene-3-sulfonic acid (4-methoxy-[2,2′]bipyridinyl-6-ylmethyl)-amide], the IC50 in test [1] lay within 300 to 42000 nM. Also, the EC50 in test [2] came out at 1300 nM. Also, in test [3], the EC50 lay within 500 to 11000 nM and the Emax fell in the range of 250 to 500%.

On to `CCN(CC)CCOc1cc(CNS(=O)(=O)c2ccc(Cl)s2)nc(-c2ccccn2)c1` [Compound 30, 5-Chloro-thiophene-2-sulfonic acid [4-(2-diethylamino-ethoxy)-[2,2′]bipyridinyl-6-ylmethyl]-amide], for which the IC50 in test [1] was in the range of 300 to 42000 nM. Besides, in test [2], the response was half-maximal at 290 nM (EC50). Also, in test [3], the 50% effective concentration (EC50) is 500 to 11000 nM and the Emax lay in the range of 250 to 500%.

`CS(=O)(=O)c1cc(CNS(=O)(=O)c2ccc(Cl)s2)nc(-c2ccccn2)c1` [Compound 33, 5-Chloro-thiophene-2-sulfonic acid (4-methanesulfonyl-[2,2′]bipyridinyl-6-ylmethyl)-amide] showed an IC50 in test [1] of 300 to 42000 nM. Further, in test [2], a half-maximal response (EC50) required 1020 nM. In addition, in test [3], the EC50 lay within 500 to 11000 nM and the Emax was in the range of 250 to 500%.

Source of the values: patent US9284296B2, “Bipyridine sulfonamide derivatives for the treatment of neurodegenerative diseases or conditions” (AUBERGINE PHARMACEUTICALS LLC, priority 2010, dated 2016).
